Values joined by “and” are separate entries in the source; they are usually repeats but may differ in a detail not shown here. Identical values can stand only once.
How the values were obtained:
Type in all cases: in vivo, SCID mice
[1] = tested on: human SKM-1 MDS xenograft; experiment: Subcutaneous human SKM-1 MDS xenograft model (SZ-EF-59-2018); conditions: Compound 1 50 mg/kg q.d×21 d p.o., alvocidib 2.5 mg/kg q.d×21 d i.p.; for RTV@ D21 / T/C(%)@D21: day 21
Procedure: (§1) SKM-1 human Myelodysplastic Syndromes (MDS) were maintained in vitro as suspension cultures in RPMI 1640 medium supplemented with 20% fetal bovine serum, 100 U/mL penicillin and 100 µg/mL streptomycin. Cells were maintained at 37° C. in an atmosphere of 5% CO2 in air and passaged twice weekly. Tumor cells growing in an exponential growth phase were harvested and counted for tumor inoculation. Each mouse was inoculated subcutaneously at the right flank region with OCI-AML-3 tumor cells (5×10^6) in 0.2 mL of PBS with 50% matrigel, SKM-1 tumor cells (3×10^7) in 0.2 mL of PBS with 50% matrigel, U2932 tumor cells (1×10^7) in 0.2 mL of PBS with 50% matrigel, for tumor development. After tumor cell inoculation, the animals were checked daily for morbidity and mortality. At the time of routine monitoring, the animals were checked for any effects of tumor growth and treatments on normal behavior such as mobility, visual estimation of food and water consumption, body weight gain/loss (body weights were measured twice weekly), eye/hair matting and any other abnormal effect. Death and observed clinical signs were recorded on the basis of the numbers of animals within each subset. The entire procedures of dosing as well as tumor and body weight measurement were conducted in a Laminar Flow Cabinet. Tumor volumes were measured twice weekly in two dimensions using a caliper, and the volume was expressed in mm^3 using the formula: Tumor Volume (mm^3)=0.5a×b^2 Relative tumor volume (RTV) was calculated using the following formula: RTV=Vt/V1 Synergy score was calculated using the following formula described in Clarke R. Issues in experimental design and endpoint analysis in the study of experimental cytotoxic agents in vivo in breast cancer and other models[J]. Breast Cancer Research & Treatment, 1997, 46(2-3):255-278, which is incorporated by reference in its entirety: Synergy score=(([…]); where A: response to treatment A; B: response to treatment B; C: response to vehicle control; AB: combination of treatment A and B. Synergy score>1, synergistic; score=1, additive; score<1, antagonistic. Standard NCI procedures were used to calculate tumor parameters. Percent tumor growth inhibition (% T/C) was calculated as the mean RTV of treated tumors (T) divided by the mean RTV of control tumors (C)×100%. […] In this study, efficacy of combination treatment with Compound 1 and alvocidib was evaluated in human SKM-1 MDS xenograft model (Study No. SZ-EF-59-2018). Dose treatments were started when the mean tumor volume reached 125 mm^3, the dose treatment start day was defined as day 1.

[2] = tested on: human U2932 DLBCL xenograft; experiment: Subcutaneous human U2932 DLBCL xenograft model, combination with alvocidib (SZ-EF-62-2018); conditions: for antitumor activity (in words) / RTV@ D19 / T/C(%)@D19: Compound 1 50 mg/kg q.d×19 d p.o., alvocidib 2.5 mg/kg q.d×7 d and q.w×2 w i.p.; for RTV@ D19 / T/C(%)@D19: day 19
Procedure: as §1, with “U2932 DLBCL” for “SKM-1 MDS”, “SZ-EF-62-2018).” for “SZ-EF-59-2018).”

[3] = tested on: human OCI-AML-3 AML xenograft; experiment: Subcutaneous human OCI-AML-3 AML xenograft model (SZ-EF-42-2018); conditions: Compound 1 50 mg/kg q.d×15 d p.o., alvocidib 2.5 mg/kg q.d×15 d i.p.; for RTV@ D15 / T/C(%)@ D15: day 15
Procedure: SKM-1 human Myelodysplastic Syndromes (MDS) were maintained in vitro as suspension cultures in RPMI 1640 medium supplemented with 20% fetal bovine serum, 100 U/mL penicillin and 100 µg/mL streptomycin. Cells were maintained at 37° C. in an atmosphere of 5% CO2 in air and passaged twice weekly. Tumor cells growing in an exponential growth phase were harvested and counted for tumor inoculation. Each mouse was inoculated subcutaneously at the right flank region with OCI-AML-3 tumor cells (5×10^6) in 0.2 mL of PBS with 50% matrigel, SKM-1 tumor cells (3×10^7) in 0.2 mL of PBS with 50% matrigel, U2932 tumor cells (1×10^7) in 0.2 mL of PBS with 50% matrigel, for tumor development. After tumor cell inoculation, the animals were checked daily for morbidity and mortality. At the time of routine monitoring, the animals were checked for any effects of tumor growth and treatments on normal behavior such as mobility, visual estimation of food and water consumption, body weight gain/loss (body weights were measured twice weekly), eye/hair matting and any other abnormal effect. Death and observed clinical signs were recorded on the basis of the numbers of animals within each subset. The entire procedures of dosing as well as tumor and body weight measurement were conducted in a Laminar Flow Cabinet. Tumor volumes were measured twice weekly in two dimensions using a caliper, and the volume was expressed in mm^3 using the formula: Tumor Volume (mm^3)=0.5a×b^2 Relative tumor volume (RTV) was calculated using the following formula: RTV=Vt/V1 Synergy score was calculated using the following formula described in Clarke R. Issues in experimental design and endpoint analysis in the study of experimental cytotoxic agents in vivo in breast cancer and other models[J]. Breast Cancer Research & Treatment, 1997, 46(2-3):255-278, which is incorporated by reference in its entirety: Synergy score=(([…]); where A: response to treatment A; B: response to treatment B; C: response to vehicle control; AB: combination of treatment A and B. Synergy score>1, synergistic; score=1, additive; score<1, antagonistic. Standard NCI procedures were used to calculate tumor parameters. Percent tumor growth inhibition (% T/C) was calculated as the mean RTV of treated tumors (T) divided by the mean RTV of control tumors (C)×100%. […] Alvocidib is a flavonoid alkaloid CDK9 kinase inhibitor, which is the first CDKi under clinical development for the treatment of acute myeloid leukemia. In this study, efficacy of combination treatment with Compound 1 and alvocidib was evaluated in human OCI-AML-3 AML xenograft model (Study No. SZ-EF-42-2018). Dose treatments were started when the mean tumor volume reached 95 mm^3, the dose treatment start day was defined as day 1.

[4] = tested on: human U2932 DLBCL xenograft; experiment: Subcutaneous human U2932 DLBCL xenograft model, combination with dinaciclib (SZ-EF-37-2019); conditions: for antitumor activity (in words) / RTV @ D21 (Mean + SEM) / T/C(%)@D21: Compound 1 30 mg/kg, dinaciclib 20 mg/kg; for mRECIST: SD (stable disease): animals with SD / animals in group; for RTV @ D21 (Mean + SEM) / T/C(%)@D21: day 21
Procedure: SKM-1 human Myelodysplastic Syndromes (MDS) were maintained in vitro as suspension cultures in RPMI 1640 medium supplemented with 20% fetal bovine serum, 100 U/mL penicillin and 100 µg/mL streptomycin. Cells were maintained at 37° C. in an atmosphere of 5% CO2 in air and passaged twice weekly. Tumor cells growing in an exponential growth phase were harvested and counted for tumor inoculation. Each mouse was inoculated subcutaneously at the right flank region with OCI-AML-3 tumor cells (5×10^6) in 0.2 mL of PBS with 50% matrigel, SKM-1 tumor cells (3×10^7) in 0.2 mL of PBS with 50% matrigel, U2932 tumor cells (1×10^7) in 0.2 mL of PBS with 50% matrigel, for tumor development. Tumor volumes were measured twice weekly in two dimensions using a caliper, and the volume was expressed in mm^3 using the formula: […] Relative tumor volume (RTV) was calculated using the following formula: […] Synergy score was calculated using the following formula described in Clarke R. Issues in experimental design and endpoint analysis in the study of experimental cytotoxic agents in vivo in breast cancer and other models[J]. Breast Cancer Research & Treatment, 1997, 46(2-3):255-278, which is incorporated by reference in its entirety: Synergy score=(([…]); where A: response to treatment A; B: response to treatment B; C: response to vehicle control; AB: combination of treatment A and B. […] Standard NCI procedures were used to calculate tumor parameters. Percent tumor growth inhibition (% T/C) was calculated as the mean RTV of treated tumors (T) divided by the mean RTV of control tumors (C)×100%. […] To confirm the synergistic antitumor effect between Compound 1 and CDK9 inhibitor in DLBCL, we applied combination therapy with Compound 1 plus CDK9 inhibitor dinaciclib in the same human U2932 DLBCL xenograft model, which was established according to embodiment 2.

SMILES	antitumor activity (in words) [1]	RTV@ D21 [1]	T/C(%)@D21 [1]	antitumor activity (in words) [2]	RTV@ D19 [2]	T/C(%)@D19 [2]	T/C(%)@D19 ([2]; listed as alvocidib)	occurrence of CR or PR ([2]; single arm)	antitumor activity (in words) [3]	RTV@ D15 [3]	T/C(%)@ D15 [3]	antitumor activity (in words) [4]	mRECIST: SD (stable disease) [4]	RTV @ D21 (Mean + SEM) [4]	T/C(%)@D21 [4]	mRECIST: PD (progressive disease) ([4]; animals with PD / animals in group)
CN1CC[C@H](c2c(O)cc(O)c3c(=O)cc(-c4ccccc4Cl)oc23)[C@H](O)C1 [Alvocidib, alvocidib]	no antitumor activity	17.2 ± 2.1	78.5%	antitumor activity	1.19 ± 0.27	25.2%	30.9%	no CR or PR	moderate antitumor activity	14.0 ± 1.5	58.8%					
O=C(NS(=O)(=O)c1ccc(NC[C@H]2COCCO2)c([N+](=O)[O-])c1)c1ccc(N2CCN(CC3=C(c4ccc(Cl)cc4)CC4(CCC4)CC3)CC2)cc1Oc1cnc2[nH]ccc2c1 [Compound 1, (S)—N-((4-(((1,4-dioxan-2-yl)methyl)amino)-3-nitrophenyl)sulfonyl)-2-((1H-pyrrolo[2,3-b]pyridin-5-yl)oxy)-4-(4-((6-(4-chlorophenyl)spiro[3.5]non-6-en-7-yl)methyl)piperazin-1-yl)benzamide]	moderate antitumor activity	14.7 ± 1.5	68.3% and 67.3%	antitumor activity	1.46 ± 0.17	30.9%			no antitumor activity	28.6 ± 2.3	120.2%	moderate antitumor activity	5/5 SD	2.79 ± 0.22	53.26%	
CCc1cnn2c(NCc3ccc[n+]([O-])c3)cc(N3CCCC[C@H]3CCO)nc12 [Dinaciclib, dinaciclib]												no antitumor activity	3/5	3.74 ± 0.58	71.55%	2/5
